What was measured:
CAL-148 [1] = test: drug sensitivity score (DSS), CellTiter-Glo (DSS (AUC-based score)); higher = stronger drug effect (viability inhibition or cytotoxicity); extreme values may be limits of the assay; conditions: incubation time: 72 h
How it was run: (§1)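 Normalisation on every plate relied on 0.1 % DMSO and a positive kill control. The plates, 384-well format, held compound at 5 concentrations 10-fold apart across a compound-specific 10,000-fold range, and breast cancer cell lines in 20 µl suspension were incubated on them for 72 h before CellTox Green and then CellTiter-Glo readings. The drug sensitivity score derives from the area under the fitted dose-response curve.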

BT-474 [2] = test: as above; conditions: incubation time: 72 h
How it was run: as §1

HCC1599 [3] = test: as above; conditions: incubation time: 72 h
How it was run: as §1

CAL-120 [4] = test: as above; conditions: incubation time: 72 h
How it was run: as §1

HCC1937 [5] = test: as above; conditions: incubation time: 72 h
How it was run: as §1

CAL-85-1 [6] = test: as above; conditions: incubation time: 72 h
How it was run: as §1

HDQ-P1 [7] = test: as above; conditions: incubation time: 72 h
How it was run: as §1

CAL-51 [8] = test: as above; conditions: incubation time: 72 h
How it was run: as §1

MDA-MB-468 [9] = test: as above; conditions: incubation time: 72 h
How it was run: as §1

BT-549 [10] = test: as above; conditions: incubation time: 72 h
How it was run: as §1

MDA-MB-436 [11] = test: as above; conditions: incubation time: 72 h
How it was run: as §1

MDA-MB-453 = test: normalised viability (% of control), CellTiter-Blue; higher = more viable cells (about 100 = DMSO control); conditions: 10 nM; incubation time: 72 h
Description: (§2)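 DSRT, CellTiter-Blue viability, 72 h incubation. Signal is normalised to DMSO and benzethonium chloride controls. Value is the normalised response at dose 3.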

CAL-148 [12] = test: as above; conditions: 10 nM; incubation time: 72 h
Description: as §2

BT-474 [13] = test: as above; conditions: 100 nM; incubation time: 72 h
Description: as §2

MFM-223 = test: as above; conditions: 100 nM; incubation time: 72 h
Description: as §2

HCC1599 [14] = test: as above; conditions: 100 nM; incubation time: 72 h
Description: as §2

DU-4475 = test: as above; conditions: 10 nM; incubation time: 72 h
Description: as §2

CAL-120 [15] = test: as above; conditions: 100 nM; incubation time: 72 h
Description: as §2

HCC1937 [16] = test: as above; conditions: 100 nM; incubation time: 72 h
Description: as §2

CAL-85-1 [17] = test: as above; conditions: 10 nM; incubation time: 72 h
Description: as §2

SK-BR-3 = test: as above; conditions: 100 nM; incubation time: 72 h
Description: as §2

HCC1143 = test: as above; conditions: 100 nM; incubation time: 72 h
Description: as §2

Hs578T = test: as above; conditions: 100 nM; incubation time: 72 h
Description: as §2

HDQ-P1 [18] = test: as above; conditions: 10 nM; incubation time: 72 h
Description: as §2

CAL-51 [19] = test: as above; conditions: 10 nM; incubation time: 72 h
Description: as §2

MDA-MB-468 [20] = test: as above; conditions: 100 nM; incubation time: 72 h
Description: as §2

BT-549 [21] = test: as above; conditions: 100 nM; incubation time: 72 h
Description: as §2

MDA-MB-231 = test: as above; conditions: 100 nM; incubation time: 72 h
Description: as §2

MDA-MB-436 [22] = test: as above; conditions: 100 nM; incubation time: 72 h
Description: as §2

Compound	drug sensitivity score (CAL-148 [1])	drug sensitivity score (BT-474 [2])	drug sensitivity score (HCC1599 [3])	drug sensitivity score (CAL-120 [4])	drug sensitivity score (HCC1937 [5])	drug sensitivity score (CAL-85-1 [6])	drug sensitivity score (HDQ-P1 [7])	drug sensitivity score (CAL-51 [8])	drug sensitivity score (MDA-MB-468 [9])	drug sensitivity score (BT-549 [10])	drug sensitivity score (MDA-MB-436 [11])	normalised viability (MDA-MB-453)	normalised viability (CAL-148 [12])	normalised viability (BT-474 [13])	normalised viability (MFM-223)	normalised viability (HCC1599 [14])	normalised viability (DU-4475)	normalised viability (CAL-120 [15])	normalised viability (HCC1937 [16])	normalised viability (CAL-85-1 [17])	normalised viability (SK-BR-3)	normalised viability (HCC1143)	normalised viability (Hs578T)	normalised viability (HDQ-P1 [18])	normalised viability (CAL-51 [19])	normalised viability (MDA-MB-468 [20])	normalised viability (BT-549 [21])	normalised viability (MDA-MB-231)	normalised viability (MDA-MB-436 [22])
CC1(C)NC(=O)N(c2ccc([N+](=O)[O-])c(C(F)(F)F)c2)C1=O [Nilutamide]	0	0	0	0	0	0	0	2.72	0	0	0	112%	95%	119%	92.4%	95.5%	100%	99.4%	99.7%	105%	95.4%	96.2%	111%	149%	101%	94.2%	99.6%	106%	96.6%
C#Cc1cccc(Nc2ncnc3cc(OCCOC)c(OCCOC)cc23)c1 [Erlotinib]	1.84	0	0	0.577	0	7.99	9.11	2.18	0	0	0.203	114%	98.8%	103%	88.5%	78%	94.9%	102%	106%	95.4%	88.7%	92.9%	85.4%	109%	102%	95%	110%	96.6%	109%
C[C@@H](Oc1cc(-c2cnn(C3CCNCC3)c2)cnc1N)c1c(Cl)ccc(F)c1Cl [Crizotinib]	0	0	0	0	0	0	0	0	0.0242	0	0	94.2%	105%	92.7%	83.4%	99.6%	91.3%	96.8%	102%	93.8%	59.1%	95.8%	64.8%	85%	107%	97.7%	95.2%	84.7%	84.8%
CN(C)/N=N/c1[nH]cnc1C(N)=O [Dacarbazine]	0	0	0	0.483	0	0	0	0	0	0	0	99.2%	96.4%	117%	88.8%	78.8%	98.4%	77.9%	106%	91.8%	86.9%	89.2%	106%	111%	85.9%	112%	99.4%	93.1%	86.8%
O=C1CCC(N2C(=O)c3ccccc3C2=O)C(=O)N1 (stereo not drawn) [Thalidomide]	0	0	0	0	0	0	0	0	0	0	0	98.3%	107%	109%	90.7%	108%	91.3%	105%	90.2%	100%	111%	112%	91.9%	101%	90.7%	98.2%	88%	106%	105%
Clc1ccc(Nc2nnc(Cc3ccncc3)c3ccccc23)cc1 [Vatalanib]	0	0	0	0	0	0	0	0	0	0	0	111%	84.4%	100%	97.7%	109%	97.9%	79.7%	112%	97.3%	66.5%	78.9%	100%	105%	101%	100%	81.4%	89.1%	119%
C[C@]12CC[C@@H]3c4ccc(O)cc4C[C@@H](CCCCCCCCC[S+]([O-])CCCC(F)(F)C(F)(F)F)[C@H]3[C@@H]1CC[C@@H]2O (stereo partly drawn) [Fulvestrant]	0	0	0	0	0	0	0	0	0	0	0	81.3%	86.5%	89.2%	70.4%	113%	105%	78.5%	91.9%	95.8%	94.3%	77.8%	85.5%	93.3%	112%	87.2%	94.8%	79.9%	103%
CN[C@@H]1C[C@H]2O[C@@](C)([C@@H]1OC)n1c3ccccc3c3c4c(c5c6ccccc6n2c5c31)C(=O)N[C@H]4O [UCN-01]	8.79	26	27.9	24.9	18.8	22.6	18.8	23.9	23.7	21.6	20.9	106%	98.5%	94.6%	66.9%	56.3%	101%	30.4%	42%	86.9%	44.2%	50.2%	14.4%	72.9%	97.5%	56.2%	52.3%	37%	75.1%
O=P1(NCCCl)OCCCN1CCCl (stereo not drawn) [Ifosfamide]	0	0.0144	0	0	0	0	0	0	0	0	0	99.8%	92.2%	120%	81.2%	108%	110%	91.2%	107%	95.5%	70.5%	83.4%	94.9%	125%	107%	98.7%	115%	108%	95.3%
Cn1c(CCCC(=O)O)nc2cc(N(CCCl)CCCl)ccc21 [Bendamustine]	0	0	0	0	0	0	0	0	0	0	0	112%	108%	108%	102%	105%	120%	88.2%	97.4%	102%	67.7%	105%	83.7%	112%	106%	96.3%	109%	93.2%	83.4%
CCC1=C[C@@H]2CN(C1)Cc1c([nH]c3ccccc13)[C@@](C(=O)OC)(c1cc3c(cc1OC)N(C)[C@H]1[C@@](O)(C(=O)OC)[C@H](OC(C)=O)[C@]4(CC)C=CCN5CC[C@]31[C@@H]54)C2 [Vinorelbine]	17.1	12.3	18.8	13.2	8.42	19.8	7.16	17.1	24.8	20.7	21.9	61.1%	105%	43.6%	49.1%	90.4%	107%	30.6%	28%	91.3%	15.7%	54.4%	28.7%	99.6%	99.9%	39.9%	23.4%	37.2%	56.8%
CCC1(c2ccc(N)cc2)CCC(=O)NC1=O (stereo not drawn) [Aminoglutethimide]	0	0	0	0	0	0	0	0	0	0	0	86.3%	99.1%	112%	97%	104%	104%	121%	91.3%	101%	105%	113%	80.6%	93.5%	93.5%	102%	73.2%	93.7%	90.9%
